Here are results for four compounds from patent publication US10414811B2, “Protease-resistant lipidated GLP-1 analogs” (MEDIMMUNE LIMITED, priority 2015, dated 2019).

By EC50 is commonly meant the midpoint of the concentration-response curve. In general, pEC50 refers to the negative decadic logarithm of the EC50, by convention in mol/L.

pEC50: −log10 of the molar value. Where two headings read alike, the source gives them in different places. Numbered stars: 1 amine (or outer) side, 2 acyl side, 3 side chain; on linkers, the order of the positions; unused ones are H or OH. Square brackets hold non-standard residues; d marks the D form. Side chains are listed from the residue outwards. Peptide text beside a SMILES is read from it. * marks the point of attachment. γGlu = O=C(O)[C@H](CCC(=O)[*:2])N[*:1]; αMeF = C[C@](N)(Cc1ccccc1)C(=O)O; αMeK = C[C@](N)(CCCCN)C(=O)O; Lauroyl = CCCCCCCCCCCC(=O)*; αMeS = C[C@](N)(CO)C(=O)O; AEEA = NCCOCCOCC(=O)O; Aib = CC(C)(N)C(=O)O

Holding throughout (format): cell-based
In experiment [1] the target is T1, human GLP-1 receptor (GLP-1R) (Homo sapiens, UniProt P43220).
T1 construct: expressed in transfected cells
In words: cAMP assay, human GLP-1R cells. The conditions noted are these: tris-lipidated peptides; for EC50: mean of n1 and n2, read-out: Primary assay EC50 Mean pM GLP-1R. In outline: (§1)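 Peptide-stimulated cAMP measured by two-step HTRF after a 30 min room-temperature incubation with receptor-expressing cells (hGLP-1R, hGIPR at 1×10^5 cells/ml; hGCGR at 2×10^5 cells/ml). Duplicate dilutions; EC50 from 4-parameter logistic fit of % Delta F.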
(In general: Changes in cAMP serve as a functional read-out for many G protein-coupled receptors.)

Experiment [2] has as its target T2, human glucagon receptor (GCGR) (Homo sapiens, UniProt P47871).
T2 construct: expressed in transfected cells
In words: cAMP assay, human GCGR cells. The conditions noted are these: tris-lipidated peptides. In outline: as §1

Experiment [3] deals with T3, human glucose-dependent insulinotropic peptide receptor (GIPR) (Homo sapiens, UniProt P48546).
T3 construct: expressed in transfected cells
T3 sequence (P48546 22-466): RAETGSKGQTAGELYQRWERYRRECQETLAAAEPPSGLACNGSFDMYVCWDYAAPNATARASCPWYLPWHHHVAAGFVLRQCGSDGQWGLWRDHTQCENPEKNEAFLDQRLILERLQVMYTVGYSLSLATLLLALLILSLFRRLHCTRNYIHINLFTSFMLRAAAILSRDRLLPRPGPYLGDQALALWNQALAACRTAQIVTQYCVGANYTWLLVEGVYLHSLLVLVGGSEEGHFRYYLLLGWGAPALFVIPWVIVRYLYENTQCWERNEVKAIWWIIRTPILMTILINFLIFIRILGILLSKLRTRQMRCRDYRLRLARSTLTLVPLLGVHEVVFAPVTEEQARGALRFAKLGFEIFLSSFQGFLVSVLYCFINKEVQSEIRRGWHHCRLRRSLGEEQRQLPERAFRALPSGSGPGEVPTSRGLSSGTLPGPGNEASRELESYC
In words: cAMP assay, human GIPR cells. The conditions noted are these: tris-lipidated peptides. In outline:
as §1

The mark [4] stands for this setting: replicate n1, read-out: Primary assay EC50 GLP-1R n1.
Setting [5] is: replicate n2, read-out: Primary assay EC50 GLP-1R n2.
The mark [6] stands for this setting: first replicate, read-out: Primary assay EC50 Gluc-R (n1).
Where [7] appears, read: first replicate, read-out: Primary assay EC50 GIP-R (n1).
Setting [8] is: second replicate, read-out: Primary assay EC50 GIP-R (n2).

T2 sequence (P47871 26-477): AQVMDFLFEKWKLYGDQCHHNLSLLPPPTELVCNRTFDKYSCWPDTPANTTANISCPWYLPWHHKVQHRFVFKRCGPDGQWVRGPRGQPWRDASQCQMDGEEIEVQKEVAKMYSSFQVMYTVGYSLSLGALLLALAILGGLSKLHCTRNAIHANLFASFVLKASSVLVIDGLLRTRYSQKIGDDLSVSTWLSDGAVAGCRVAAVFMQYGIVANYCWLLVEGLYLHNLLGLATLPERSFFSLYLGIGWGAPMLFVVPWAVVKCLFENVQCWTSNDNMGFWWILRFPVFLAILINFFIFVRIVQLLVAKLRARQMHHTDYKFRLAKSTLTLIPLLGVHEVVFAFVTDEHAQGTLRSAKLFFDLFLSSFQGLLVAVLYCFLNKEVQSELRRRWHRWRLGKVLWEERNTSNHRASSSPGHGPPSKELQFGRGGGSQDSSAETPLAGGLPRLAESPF
T1 sequence (P43220 24-463): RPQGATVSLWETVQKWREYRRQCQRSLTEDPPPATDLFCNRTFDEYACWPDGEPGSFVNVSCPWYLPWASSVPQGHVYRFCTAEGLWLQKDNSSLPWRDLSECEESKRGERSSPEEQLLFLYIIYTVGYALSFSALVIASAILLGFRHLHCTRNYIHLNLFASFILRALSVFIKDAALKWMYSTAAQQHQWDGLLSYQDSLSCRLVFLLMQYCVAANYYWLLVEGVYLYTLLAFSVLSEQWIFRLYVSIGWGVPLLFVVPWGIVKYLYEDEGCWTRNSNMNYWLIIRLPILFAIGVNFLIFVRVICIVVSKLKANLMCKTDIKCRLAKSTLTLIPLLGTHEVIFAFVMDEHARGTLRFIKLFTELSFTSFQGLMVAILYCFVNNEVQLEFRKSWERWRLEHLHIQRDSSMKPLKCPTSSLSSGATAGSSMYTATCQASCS

In the case of `CCCCCCCCCCCC(=O)N[C@@H](CCC(=O)NCCOCCOCC(=O)NCCOCCOCC(=O)NCCCC[C@H](NC(=O)[C@H](CCC(=O)O)NC(=O)[C@H](CC(C)C)NC(=O)[C@H](Cc1ccc(O)cc1)NC(=O)[C@H](CO)NC(=O)[C@H](CO)NC(=O)[C@H](CCCCNC(=O)COCCOCCNC(=O)COCCOCCNC(=O)CC[C@H](NC(=O)CCCCCCCCCCC)C(=O)O)NC(=O)[C@H](CC(=O)O)NC(=O)[C@H](CO)NC(=O)[C@@H](NC(=O)[C@](C)(Cc1ccccc1)NC(=O)[C@H](CO)NC(=O)CNC(=O)[C@H](CCC(=O)O)NC(=O)C(C)(C)NC(=O)[C@@H](N)Cc1c[nH]cn1)[C@@H](C)O)C(=O)N[C@@H](CCC(=O)O)C(=O)N[C@@H](C)C(=O)N[C@@H](C)C(=O)N[C@@](C)(CCCCN)C(=O)N[C@@H](CCC(=O)O)C(=O)N[C@@H](Cc1ccccc1)C(=O)N[C@H](C(=O)N[C@@H](C)C(=O)N[C@@H](Cc1ccccc1)C(=O)N[C@@H](CCCCNC(=O)COCCOCCNC(=O)COCCOCCNC(=O)CC[C@H](NC(=O)CCCCCCCCCCC)C(=O)O)C(=O)N[C@H](C(=O)N[C@@H](CCC(=O)O)C(=O)NCC(=O)NCC(N)=O)C(C)C)[C@@H](C)CC)C(=O)O` [compound 471] (H-H[Aib]EGS[αMeF]TSDK([AEEA-AEEA-γGlu-Lauroyl])SSYLEK([AEEA-AEEA-γGlu-Lauroyl])EAA[αMeK]EFIAFK([AEEA-AEEA-γGlu-Lauroyl])VEGG-NH2), the EC50 in experiment [1] amounted to 374 pM. The pEC50 was 9.56 in experiment [1] (setting [4]), 9.33 in experiment [1] (setting [5]), ≤ 7.71 in experiment [2] (setting [6]) and ≤ 7.71 in experiment [3] (setting [7]).

Turning to `CCCCCCCCCCCC(=O)N[C@@H](CCC(=O)NCCOCCOCC(=O)NCCOCCOCC(=O)NCCCC[C@H](NC(=O)[C@H](CCC(=O)O)NC(=O)CNC(=O)[C@H](CCC(=O)O)NC(=O)[C@H](CC(C)C)NC(=O)[C@H](Cc1ccc(O)cc1)NC(=O)[C@H](CO)NC(=O)[C@H](CO)NC(=O)[C@H](CCCCNC(=O)COCCOCCNC(=O)COCCOCCNC(=O)CC[C@H](NC(=O)CCCCCCCCCCC)C(=O)O)NC(=O)[C@H](CC(=O)O)NC(=O)[C@H](CO)NC(=O)[C@@H](NC(=O)[C@](C)(Cc1ccccc1)NC(=O)[C@H](CO)NC(=O)CNC(=O)[C@H](CCC(=O)O)NC(=O)C(C)(C)NC(=O)[C@@H](N)Cc1c[nH]cn1)[C@@H](C)O)C(=O)N[C@@H](C)C(=O)N[C@@](C)(CCCCN)C(=O)N[C@@H](CCC(=O)O)C(=O)N[C@@H](Cc1ccccc1)C(=O)N[C@H](C(=O)N[C@@H](C)C(=O)N[C@@H](Cc1ccccc1)C(=O)N[C@@H](CCCCNC(=O)COCCOCCNC(=O)COCCOCCNC(=O)CC[C@H](NC(=O)CCCCCCCCCCC)C(=O)O)C(=O)N[C@H](C(=O)N[C@@H](CCC(=O)O)C(=O)NCC(=O)NCC(N)=O)C(C)C)[C@@H](C)CC)C(=O)O` [compound 473] (H-H[Aib]EGS[αMeF]TSDK([AEEA-AEEA-γGlu-Lauroyl])SSYLEGEK([AEEA-AEEA-γGlu-Lauroyl])A[αMeK]EFIAFK([AEEA-AEEA-γGlu-Lauroyl])VEGG-NH2; N-terminus assumed), the EC50 in experiment [1] amounted to 434 pM. For the same compound, the pEC50 was 9.40 in experiment [1] (setting [4]); 9.33 in experiment [1] (setting [5]); 7.71 in experiment [2] (second replicate, read-out: Primary assay EC50 Gluc-R (n2)); 7.71 in experiment [3] (setting [8]).

As to `CCCCCCCCCCCC(=O)N[C@@H](CCC(=O)NCCOCCOCC(=O)NCCOCCOCC(=O)NCCCC[C@H](NC(=O)[C@H](CCC(=O)O)NC(=O)[C@H](CC(C)C)NC(=O)[C@H](CCCCNC(=O)COCCOCCNC(=O)COCCOCCNC(=O)CC[C@H](NC(=O)CCCCCCCCCCC)C(=O)O)NC(=O)[C@H](CO)NC(=O)[C@](C)(CO)NC(=O)[C@@H](NC(=O)[C@H](CC(=O)O)NC(=O)[C@H](CO)NC(=O)[C@@H](NC(=O)[C@](C)(Cc1ccccc1)NC(=O)[C@H](CO)NC(=O)CNC(=O)[C@H](CCC(=O)O)NC(=O)C(C)(C)NC(=O)[C@@H](N)Cc1c[nH]cn1)[C@@H](C)O)C(C)C)C(=O)N[C@@H](CCC(=O)O)C(=O)N[C@@H](C)C(=O)N[C@@H](C)C(=O)N[C@@](C)(CCCCN)C(=O)N[C@@H](CCC(=O)O)C(=O)N[C@@H](Cc1ccccc1)C(=O)N[C@H](C(=O)N[C@@H](C)C(=O)N[C@@H](Cc1ccccc1)C(=O)N[C@@H](CCCCNC(=O)COCCOCCNC(=O)COCCOCCNC(=O)CC[C@H](NC(=O)CCCCCCCCCCC)C(=O)O)C(=O)N[C@H](C(=O)N[C@@H](CCC(=O)O)C(=O)NCC(=O)NCC(N)=O)C(C)C)[C@@H](C)CC)C(=O)O` [compound 479] (H-H[Aib]EGS[αMeF]TSDV[αMeS]SK([AEEA-AEEA-γGlu-Lauroyl])LEK([AEEA-AEEA-γGlu-Lauroyl])EAA[αMeK]EFIAFK([AEEA-AEEA-γGlu-Lauroyl])VEGG-NH2), the EC50 in experiment [1] came to 186 pM. Further, the pEC50 is 9.88 in experiment [1] (setting [4]), 9.62 in experiment [1] (setting [5]), 7.70 in experiment [2] (setting [6]) and 7.70 in experiment [3] (setting [8]).

Turning to `CCCCCCCCCCCC(=O)N[C@@H](CCC(=O)NCCOCCOCC(=O)NCCOCCOCC(=O)NCCCC[C@H](NC(=O)[C@H](CCC(=O)O)NC(=O)[C@H](CCCCNC(=O)COCCOCCNC(=O)COCCOCCNC(=O)CC[C@H](NC(=O)CCCCCCCCCCC)C(=O)O)NC(=O)[C@H](Cc1ccc(O)cc1)NC(=O)[C@H](CO)NC(=O)[C@](C)(CO)NC(=O)[C@@H](NC(=O)[C@H](CC(=O)O)NC(=O)[C@H](CO)NC(=O)[C@@H](NC(=O)[C@](C)(Cc1ccccc1)NC(=O)[C@H](CO)NC(=O)CNC(=O)[C@H](CCC(=O)O)NC(=O)C(C)(C)NC(=O)[C@@H](N)Cc1c[nH]cn1)[C@@H](C)O)C(C)C)C(=O)N[C@@H](CCC(=O)O)C(=O)N[C@@H](C)C(=O)N[C@@H](C)C(=O)N[C@@](C)(CCCCN)C(=O)N[C@@H](CCC(=O)O)C(=O)N[C@@H](Cc1ccccc1)C(=O)N[C@H](C(=O)N[C@@H](C)C(=O)N[C@@H](Cc1ccccc1)C(=O)N[C@@H](CCCCNC(=O)COCCOCCNC(=O)COCCOCCNC(=O)CC[C@H](NC(=O)CCCCCCCCCCC)C(=O)O)C(=O)N[C@H](C(=O)N[C@@H](CCC(=O)O)C(=O)NCC(=O)NCC(N)=O)C(C)C)[C@@H](C)CC)C(=O)O` [compound 483] (H-H[Aib]EGS[αMeF]TSDV[αMeS]SYK([AEEA-AEEA-γGlu-Lauroyl])EK([AEEA-AEEA-γGlu-Lauroyl])EAA[αMeK]EFIAFK([AEEA-AEEA-γGlu-Lauroyl])VEGG-NH2; N-terminus assumed), the EC50 in experiment [1] was determined as 244 pM. Moreover, the pEC50 in experiment [1] (setting [4]) was 9.64; in experiment [1] (setting [5]) it was 9.59; in experiment [2] (setting [6]), ≤ 7.71; in experiment [3] (setting [7]), ≤ 7.71.
